Data taken from PMC8284440, “Toward New Transmission-Blocking Combination Therapies: Pharmacokinetics of 10-Amino-Artemisinins and 11-Aza-Artemisinin and Comparison with Dihydroartemisinin and Artemether” (Antimicrobial Agents and Chemotherapy, 2021).
≈ marks a conversion by molar mass, not a printed value. Where “and” joins values, the source holds several entries; their conditions need not be identical. Identical values can stand only once. Like-named read-outs stand apart in the source and are kept apart here.

Legend:
[1] = Pharmacokinetics in mice, intravenous administration; format: in vivo, male C57/BL6 mice; conditions: for AUC: 0 h to last, parent; for V: volume of distribution during elimination phase; for half-life / CLint scaled / clearance: male; for half-life: C57/BL6, iv, mouse plasma; for CLint scaled / clearance: C57/BL6, mouse, plasma, iv; for clearance: read-out: CLtot; for DHA detected as a metabolite: mouse PK studies, i.v. and p.o., LC-MS/MS
Description: (i) Animals. Healthy male C57/BL6 mice each weighing approximately 25 g were used. The mice maintained at the University of Cape Town animal facility were housed in 27 by 21 by 18 cm cages, under controlled environmental conditions at 22 ± 2°C and a 12-h light/dark cycle. Humidity was monitored and ranged between 55 and 70%. Food and water were available ad libitum. Mice were acclimatized to their environment for 7 days before experiments were initiated.
(iii) Intravenous drug administration. For the intravenous formulations, each of artemether, the amino-artemisinins 5 to 10, and 11-aza-artemisinin 11 (2.5 mg) was dissolved in 1 ml DMSO/PEG/PPG (1:3:6, vol/vol). DMSO was added first, followed by PEG and then PPG. The resulting solutions in the mixture of DMSO, PEG, and PPG (1:3:6, vol/vol) were administered intravenously at a dose of 10 mg/kg (n = 3) via injection into the dorsal penile vein. Mice were anesthetized with an intraperitoneal injection of a saline ketamine/xylazine solution. This consisted of 1 ml ketamine (100 mg/ml), 0.5 ml xylazine (20 mg/ml), and 8.5 ml PBS solution to make a total volume of 10 ml. Dosage of anesthetic preparation for mice was […]; this amounts to a dose of 80 mg/kg ketamine and 10 mg/kg xylazine. The total volume of administration was dose adjusted to 10 mg/kg with an approximate volume of 80 μl, according to the weight of each animal on the morning of dosing. Blood samples for the amino-artemisinins 5 to 8 and 10 were collected via tail-bleeding predose and at 0.08, 0.25, 0.5, 1, 2, and 4 h, and blood samples for the phenylurea 9 and 11-aza-artemisinin 11 were collected at 0.08, 0.5, 1, 2, 4, 8, and 24 h postdose. Samples were all placed in 0.5 ml lithium heparin microvials to prevent blood coagulation. The samples were immediately centrifuged at 5,590 × g for 5 min and the plasma was transferred to new microvials. The plasma samples were stored at −80°C.
Sample extraction. […] The organic layer was then transferred and evaporated under a gentle stream of nitrogen at room temperature for 30 min. The dried samples were reconstituted in mobile phase, and a 5 μl sample was injected for LC-MS/MS analysis. The only exception was the arylurea 10, for which no liquid-liquid extraction was conducted; instead, the 200 μl acetonitrile solution was evaporated under a gentle stream of nitrogen at room temperature. The dried sample was reconstituted in the mobile phase, and a 5 μl sample was injected for LC-MS/MS analysis. The plasma samples for each compound from the in vivo studies were extracted by mixing 350 μl ethyl acetate with 15 μl of plasma sample and 35 μl of universal buffer containing internal standard at pH 8. The samples were vortexed for 1 min and centrifuged for 5 min, and the organic layer was then transferred and evaporated under a gentle stream of nitrogen at room temperature for 30 min. The dried samples were each reconstituted in the mobile phase, and a 5 μl sample was injected for LC-MS/MS analysis.
LC-MS/MS analysis. For all the artemisinins except the arylurea 10, gradient chromatography was performed on a Phenomenex (Torrance, CA, USA) Luna PFP(2) analytical column (100 Å, 5 μm, 2 by 50 mm) and an AB Sciex API 5500 mass spectrometer which was operated at unit resolution in the multiple reaction monitoring (MRM) mode. The HPLC method used was a gradient method with 5 mM ammonium acetate and 0.1% acetic acid in water as the aqueous phase and a mixture of acetonitrile and methanol (1:1 vol/vol) containing 5% of the aqueous phase as the organic phase ([89]). The arylurea 10 was analyzed using a Phenomenex Gemini NX-C18 (5 μm, 2.1 mm by 50 mm) column with an AB Sciex 3200 QTRAP mass spectrometer operated at unit resolution in the MRM mode. The HPLC method used was a gradient method with 5 mM ammonium acetate and 0.1% acetic acid in water as the aqueous phase and a mixture of acetonitrile and methanol (1:1 vol/vol).

P. falciparum NF54 [2] = tested on: P. falciparum NF54; design: method as in ref 4 (supplement; main text 62); conditions: Table S2, ± SEM; ref 4 (supplement; main text 62); read-out: Antimalarial activities IC50 NF54; cited from earlier work
P. falciparum K1 [3] = tested on: P. falciparum K1; design: method as in ref 4 (supplement; main text 62); conditions: Table S2, ± SEM; ref 4 (supplement; main text 62); read-out: Antimalarial activities IC50 K1; cited from earlier work
[4] = tested on: late stage (>90% stage IV and V) P. falciparum NF54 gametocytes; conditions: cited from earlier work
P. falciparum NF54 [5] = tested on: P. falciparum NF54; design: method as in ref 1 and 2 (supplement; main text 47, 48); conditions: Table S1, ± SEM; ref 1 and 2 (supplement; main text 47, 48); cited from earlier work
P. falciparum K1 [6] = tested on: P. falciparum K1; design: method as in ref 1 and 2 (supplement; main text 47, 48); conditions: Table S1, ± SEM; ref 1 and 2 (supplement; main text 47, 48); cited from earlier work
P. falciparum D6 = tested on: P. falciparum D6; design: method as in ref 5 (supplement; main text 63); conditions: CQ sensitive; ref 5 (supplement; main text 63); read-out: Antimalarial activities IC50 D6; cited from earlier work
P. falciparum TM93-C1088 = tested on: P. falciparum TM93-C1088; design: method as in ref 5 (supplement; main text 63); conditions: atovaquone and CQ resistant; ref 5 (supplement; main text 63); read-out: Antimalarial activities IC50 TM93-C1088; cited from earlier work
P. falciparum TM-C2B = tested on: P. falciparum TM-C2B; design: method as in ref 5 (supplement; main text 63); conditions: atovaquone and CQ resistant; ref 5 (supplement; main text 63); read-out: Antimalarial activities IC50 TM-C2B; cited from earlier work
[7] = cited from earlier work
[8] = tested on: liver stage P. berghei ANKA GFP-Luc-SMcon sporozoites; design: method as in ref 2 (supplement; main text 48); conditions: ref 2 (supplement; main text 48), cited from earlier work; for IC50: 48 h, ± SD
HepG2 = conditions: read-out: Cytotoxicity EC50 HepG2; ref 2 (supplement; main text 48); cited from earlier work
[9] = 10 mg/kg, i.v. 10 mg/kg, total plasma clearance
[10] = Table S4, n = 1, ref 4 (supplement; main text 62), read-out: Late stage IC50 (Luciferase 72 h)
[11] = Table S3, ± SEM, ref 1 and 2 (supplement; main text 47, 48), read-out: Late Stage (LG, Luc 72 h) IC50
[12] = metabolite formed from i.v. artemiside 5, 10 mg/kg

| Compound | AUC ([1]; i.v. 10 mg/kg) [min/µmol/L] | V ([1]; i.v. 10 mg/kg) [L/kg] | half-life ([1]; i.v. 10 mg/kg) [h] | CLint scaled ([1]; 10 mg/kg) [mL/min/kg] | clearance [1, 9] [mL/min/kg] | IC50 (P. falciparum NF54 [2]) [nM] | IC50 (P. falciparum K1 [3]) [nM] | IC50 (P. falciparum NF54 [5]) [nM] | IC50 (P. falciparum K1 [6]) [nM] | IC50 [4, 11] [nM] | IC50 (P. falciparum D6) [nM] | IC50 (P. falciparum TM93-C1088) [nM] | IC50 (P. falciparum TM-C2B) [nM] | DHA detected as a metabolite [1] | aqueous solubility at pH 7.2 [7] | IC50 [8] [nM] | Maximum inhibition % ([8]; at 10 µM) [%] | EC50 (HepG2) [nM] | further results |
| --- | --- | --- | --- | --- | --- | --- | --- | --- | --- | --- | --- | --- | --- | --- | --- | --- | --- | --- | --- |
| C[C@@H]1CC[C@H]2[C@@H](C)C(=O)N[C@@H]3O[C@@]4(C)CC[C@@H]1[C@]32OO4 [11-Aza-artemisinin 11, 11-aza-artemisinin] | 462.7 ± 117 | 19.4 ± 7.5 | 3.1 ± 0.8 | 577 | 75 ± 8.9 | 10.5 ± 1.36 | 9.44 ± 2.93 |  |  |  |  |  |  |  |  |  |  |  | DHA detected as a metabolite ([1]; listed as 11-Aza-artemisinin): could not be detected; DHA detected as a metabolite ([1]; listed as 11-aza-artemisinin): not detected; IC50 [4, 10]: 166 nM |
| C[C@H]1[C@@H](O)O[C@@H]2O[C@@]3(C)CC[C@H]4[C@H](C)CC[C@@H]1[C@@]24OO3 [DHA 2, dihydroartemisinin] |  |  |  |  |  | 0.57 ± 0.01 | 0.8 ± 0.5 | 2.51 ± 0.19 | 1.51 ± 0.33 | 33.7 ± 1.98 | 1.7 ± 0.4 | 1.4 ± 0.4 | 2 ± 0.7 |  |  |  |  |  | AUC of metabolite ([1]; metabolite formed from i.v. artemether 3, 10 mg/kg): 155 ± 17 min/µmol/L |
| C[C@H]1[C@H](N2CCS(=O)(=O)CC2)O[C@@H]2O[C@@]3(C)CC[C@H]4[C@H](C)CC[C@@H]1[C@@]24OO3 [Artemisone 6, artemisone] | 577.5 ± 30 | 1.9 ± 0.1 | 0.5 ± 0.03 | 302 | 42.3 ± 2.1 |  |  | 1.2 ± 0.4 | 1.01 ± 0.19 | 42.4 ± 3.3 | 1 ± 0.4 | 0.7 ± 0.2 | 1.1 ± 0.4 | not detected | 89 mg/liter and 221.6 μM | 28.3 | 93.35±1.76 | > 50000 | AUC of metabolite [1, 12]: 28.9 ± 1 min/µmol/L |
| C[C@H]1[C@H](N2CCN(C(=O)Nc3ccc(F)cc3)CC2)O[C@@H]2O[C@@]3(C)CC[C@H]4[C@H](C)CC[C@@H]1[C@@]24OO3 [Arylurea 10] | 315.9 ± 33 | 6.92 ± 2.9 | 1.3 ± 0.3 | 2940 | 58.9 ± 3.5 |  |  | 1.3 ± 0.1 | 0.85 ± 0.1 | 17 ± 7 |  |  |  |  |  | 106 | 94.85±2.76 | 5160 |  |
| C[C@H]1[C@H](N2C=CS(=O)(=O)CC2)O[C@@H]2O[C@@]3(C)CC[C@H]4[C@H](C)CC[C@@H]1[C@@]24OO3 [M1 12] |  |  |  |  |  |  |  |  |  |  | 4.7 ± 0.2 | 2.5 ± 0.4 | 8.6 ± 8.2 |  |  |  |  |  | AUC of metabolite [1, 12]: 13.8 ± 9 min/µmol/L; AUC of metabolite ([1]; metabolite formed from i.v. artemisone, 10 mg/kg): 60.6 ± 36 min/µmol/L |
| C[C@H]1[C@H](N2CCSCC2)O[C@@H]2O[C@@]3(C)CC[C@H]4[C@H](C)CC[C@@H]1[C@@]24OO3 [Artemiside 5, artemiside] | 184.9 ± 43 | 24.3 ± 9.3 | 1.8 ± 0.5 | 674 | 130 |  |  | 1.11 ± 0.17 | 1.6 ± 0.4 | 1.5 ± 0.5 |  |  |  | not detected | < 2 mg/liter and < 5.4 μM | 81.3 |  | > 25000 | CLtot ([1]; i.v. 10 mg/kg, total plasma clearance, 10 mg/kg): 155.0 ± 46.4 mL/min/kg; Maximum inhibition % ([8]; at 5 µM): 99.05±1.34% |
| CO[C@H]1O[C@@H]2O[C@@]3(C)CC[C@H]4[C@H](C)CC[C@@H]([C@H]1C)[C@@]24OO3 [Artemether 3, artemether] | 304.4 ± 80 | 14.1 ± 1.3 | 1.4 ± 0.2 | 855 | 120 ± 39 | 1.86 ± 0.17 | 2.64 ± 0.18 |  |  |  |  |  |  |  |  | > 104 | 49.4 |  | aqueous solubility ([7]; 25°C): 12.1 µg/mL (≈ 40.6 µM); aqueous solubility [7]: 300 µg/mL (≈ 1010 µM); aqueous solubility rating [7]: insoluble; aqueous solubility ([7]; variously recorded): < 1000 µg/mL; IC50 [4, 10]: 224 nM; IC50 ([8]; listed as artemether): > 10000 nM |
| C[C@H]1[C@H](NS(N)(=O)=O)O[C@@H]2O[C@@]3(C)CC[C@H]4[C@H](C)CC[C@@H]1[C@@]24OO3 [Sulfamide 7] | 864.1 ± 213 | 1.63 ± 0.4 | 0.6 ± 0.1 | 189 | 32.2 ± 6.2 |  |  | 3 ± 1 | 1.78 ± 0.26 | 419 |  |  |  | not detected | 294 mg/liter and 811 μM |  |  |  |  |
